Entries after “also recorded” stand apart in the source; their conditions may differ.
How the values were obtained:
[1] = Effectiveness of bases in cardol removal / cardol-cardanol separation (Example 7); settings: for effect on separation / suitability, in words: general statement
[2] = Runs with different amines on distilled CNSL, GC of distillate (Example 2); settings: 0.2 mole amine, seven days, 0.5 mm Hg, fraction 180-185° C.
Experimental: A series of runs was performed using different amines. 0.2 mole of the amines indicated in the table was mixed with 300 g of distilled CNSL (cardanol:cardol 90:10, 1.0 mole). When the mixture was stirred a mild exothermic reaction was noted. The mixture was allowed to stand for seven days at room temperature then distilled at 0.5 mm Hg. The major fraction (boiling at 180° to 185° C.) was analyzed by gas chromatography for cardanol and cardol.

[3] = determined in aqueous solution; literature values; cited from earlier work
[4] = Distillation of Technical CNSL treated with amines (Example 1, Table 1); settings: for % composition of distillate: 2-me-Cardol / % composition of distillate: Cardanol / % composition of distillate: Cardol / % composition of residue: 2-me-Cardol / % composition of residue: Cardanol / % composition of residue: Cardol: short still head
Source text: (§1) Technical CNSL of Brazilian origin and distilled CNSL obtained from it were used in the present work. Material of this origin tends to be richer in cardol. The average molecular weight was taken to be 306 based upon cardanol (average dienoid, m.w. 300) and cardol (m.w. 314, average trienoid). Three amines were used, namely diethylenetriamine (V), N-(2-aminoethyl)ethanolamine (VI) and diethanolamine (VII), which are structurally related. [drawing 3] Different molar proportions of the triamine (DETA) (V) were used with distilled CNSL (1.0 mole), from 0.25, 0.50 to 1.0. In the case of Technical CNSL (having more cardol initially present) the molar proportions of DETA were 1.0, 1.6 and 2.0 per mole of the CNSL. The mixtures in all cases were kept for 7 days and then distilled under high vacuum. After recovery of the amine, one fraction of cardanol which was considerably purified was collected. […] The distillation residue was still quite mobile and from this, cardol and the polymer from the original CNSL could be recovered.
In a typical experiment, technical CNSL (9.18 g) and DETA (3.09 g: 1 mole) were interacted at ambient temperature and the mixture after 7 days distilled through a short Vigreux type Claisen flask.
(§2) In the distillations reported in the following Tables 1 and 2 a Vigreux column was not used but merely a short still head section. All products were examined by gas-liquid chromatography (hereinafter GLC) on a gas chromatographic apparatus equipped with an integrator upon a 3% SE30 type column after trimethylsilylation with bis-(trimethylsilyl)acetamide in a pyridine solution. In the calculation of the results, response fractions have not been used. The peak areas as printed out by integration have been normalized (expressed in % form).
(9.18 g of Technical CNSL was used)

[5] = Distillation of distilled CNSL treated with amines (Example 1, Table 2)
Source text: as §1, §2
(9.18 g distilled CNSL was used with different

[6] = Effect of length of time of DETA treatment (Example 3)
Source text: as §1, §2
Technical CNSL was treated with DETA (1 mole proportion) and the mixture distilled as in Example 1 after it had been allowed to stand for 24 hours instead of 7 days. […] Probably an overnight procedure might well suffice.

N [ammonium hydroxide]
effect on separation / suitability, in words [1]: not suitable

CCCCN [n-butylamine]
% composition of distillate: Cardanol [2]: 94.5% | % composition of distillate: Cardol [2]: 5.5% | Effectiveness (in cardol removal) [1]: not effective; also recorded: ineffective | effect on separation / suitability, in words [1]: not suitable | Kb [3]: 3.9 × 10^-4

NCCNCCN [DETA, diethylenetriamine]
cardol after distillation ([4]; 1 molar proportion, no Vigreux column, from ca 20%): ~6% | impurity in distilled cardanol by TLC ([4]; 1 mole DETA, 7 days, short Vigreux type flask): no cardanol | cardol after distillation, in words ([4]; Vigreux type column): almost zero | % composition of distillate: 2-me-Cardol ([4]; amine 1 M, 7 days): 1.9% | % composition of distillate: Cardanol ([4]; amine 1 M, 7 days): 93.0% | % composition of distillate: Cardol ([4]; amine 1 M, 7 days): 5.1% | % composition of residue: 2-me-Cardol ([4]; amine 1 M, 7 days): 3.2% | % composition of residue: Cardanol ([4]; amine 1 M, 7 days): 85.6% | % composition of residue: Cardol ([4]; amine 1 M, 7 days): 11.2% | % composition of distillate: 2-me-Cardol ([4]; amine 1.6 M, 7 days): 2.1% | % composition of distillate: Cardanol ([4]; amine 1.6 M, 7 days): 91.1% | % composition of distillate: Cardol ([4]; amine 1.6 M, 7 days): 6.8% | % composition of residue: 2-me-Cardol ([4]; amine 1.6 M, 7 days): 4.24% | % composition of residue: Cardanol ([4]; amine 1.6 M, 7 days): 75.1% | % composition of residue: Cardol ([4]; amine 1.6 M, 7 days): 21.7% | % composition of distillate: 2-me-Cardol ([4]; amine 2 M, 7 days): 1.1% | % composition of distillate: Cardanol ([4]; amine 2 M, 7 days): 93.1% | % composition of distillate: Cardol ([4]; amine 2 M, 7 days): 5.8% | % composition of residue: 2-me-Cardol ([4]; amine 2 M, 7 days): 7.6% | % composition of residue: Cardanol ([4]; amine 2 M, 7 days): 63.2% | % composition of residue: Cardol ([4]; amine 2 M, 7 days): 29.1% | % composition of distillate: 2-me-Cardol ([5]; amine 0.25 M): 0.7% | % composition of distillate: Cardanol ([5]; amine 0.25 M): 95.4% | % composition of distillate: Cardol ([5]; amine 0.25 M): 3.9% | % composition of distillate: 2-me-Cardol ([5]; amine 0.50 M): 0.4% | % composition of distillate: Cardanol ([5]; amine 0.50 M): 97.7% | % composition of distillate: Cardol ([5]; amine 0.50 M): 2.0% | % composition of distillate: 2-me-Cardol ([5]; amine 1.0 M): 2.0% | % composition of distillate: Cardanol ([5]; amine 1.0 M): 93.8% | % composition of distillate: Cardol ([5]; amine 1.0 M): 4.2% | % composition of distillate: Cardanol [2]: 98.9% | % composition of distillate: Cardol [2]: 0.0% | effectiveness of 24 hour treatment ([6]; 24 h, 1 mole proportion): quite effective | % Composition of distillate: 2-Methyl-Cardol ([6]; 24 h with DETA (1 M)): 1.6% | % composition of distillate: Cardanol ([6]; 24 h with DETA (1 M)): 91.7% | % composition of distillate: Cardol ([6]; 24 h with DETA (1 M)): 6.6% | % Composition of distillate: 2-Methyl-Cardol ([6]; 7 days with DETA (1 M)): 1.8% | % composition of distillate: Cardanol ([6]; 7 days with DETA (1 M)): 92.0% | % composition of distillate: Cardol ([6]; 7 days with DETA (1 M)): 6.2% | Effectiveness (in cardol removal) [1]: excellent | Kb [3]: 4.5 × 10^-5

NCCNCCO [N-(2-Aminoethyl)ethanolamine, N-(2-aminoethyl)ethanolamine]
% composition of distillate: 2-me-Cardol ([4]; amine 1.5 M, 7 days): 2.3% | % composition of distillate: Cardanol ([4]; amine 1.5 M, 7 days): 92.4% | % composition of distillate: Cardol ([4]; amine 1.5 M, 7 days): 5.3% | % composition of residue: 2-me-Cardol ([4]; amine 1.5 M, 7 days): 4.7% | % composition of residue: Cardanol ([4]; amine 1.5 M, 7 days): 75.5% | % composition of residue: Cardol ([4]; amine 1.5 M, 7 days): 19.8% | Effectiveness (in cardol removal) [1]: excellent | Kb [3]: 6.6 × 10^-5

CCN(CC)CC [triethylamine]
Effectiveness (in cardol removal) [1]: excellent | Kb [3]: 4.5 × 10^-4

OCCNCCO [Diethanolamine, diethanolamine]
% composition of distillate: 2-me-Cardol ([4]; amine 1.5 M, 7 days): 2.3% | % composition of distillate: Cardanol ([4]; amine 1.5 M, 7 days): 88.0% | % composition of distillate: Cardol ([4]; amine 1.5 M, 7 days): 9.7% | % composition of residue: 2-me-Cardol ([4]; amine 1.5 M, 7 days): 10.4% | % composition of residue: Cardanol ([4]; amine 1.5 M, 7 days): 55.7% | % composition of residue: Cardol ([4]; amine 1.5 M, 7 days): 33.9% | Effectiveness (in cardol removal) [1]: not effective; also recorded: ineffective | effect on separation / suitability, in words [1]: not effective

C1CCNCC1 [Piperidine, piperidine]
% composition of distillate: Cardanol [2]: 96.1% | % composition of distillate: Cardol [2]: 2.2% | Effectiveness (in cardol removal) [1]: excellent | Kb [3]: 1.7 × 10^-3

Reference: patent US4352944A, “Treatment of cashew nut shell liquid” (Minnesota Mining and Manufacturing Company, priority 1980, dated 1982)
